One data set deals with human σ1 receptors (Homo sapiens, UniProt Q99720). The data set can be described thus: σ1 receptor affinity, competitive binding with [3H]-(+)-pentazocine (HZDR Leipzig). The following applies: determined at HZDR Leipzig. The method, then:
To decide which of the nine compounds would be suitable for subsequent radiofluorination, we determined the affinity towards the σ1 receptor as the most relevant off-target protein.
(§1) Binding affinity experiments to assess the Ki values of test compounds towards rat σ2 receptors, human σ1 receptors, and rat VAChT were performed according to protocols previously published by our group. The same protocol was used to determine the KD and Bmax values of RM273 towards σ2 receptors expressed in F98 cells by homologous competition analyzing the displacement of [^18F]RM273 by RM273.

The target of data set [1] is T1, σ2 receptor (Rattus norvegicus, UniProt Q5U3Y7).
T1 sequence (Q5U3Y7 1-176): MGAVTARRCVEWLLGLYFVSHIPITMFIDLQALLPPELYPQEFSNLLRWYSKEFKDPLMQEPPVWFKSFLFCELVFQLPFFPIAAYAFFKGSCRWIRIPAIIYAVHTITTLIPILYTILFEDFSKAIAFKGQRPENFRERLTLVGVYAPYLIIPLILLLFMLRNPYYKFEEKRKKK
The data set can be described thus: σ2 receptor affinity, inhibition of [3H]DTG binding in rat liver membrane homogenates. The following applies: for Ki: [3H]DTG, rat liver membrane homogenates. The arrangement: preparations of membrane homogenates obtained from rat liver; from tissue; host or cells: rat liver. The method, then: Initially, we assessed the affinity of all derivatives towards the target protein and investigated the inhibition of the binding of [^3H]DTG in preparations of membrane homogenates obtained from rat liver, which is known to express high levels of σ2 receptors.
as §1

For another data set, the target named is guinea pig σ1 receptors (Cavia porcellus, UniProt Q60492). In words: σ1 receptor affinity, competitive binding with [3H]-(+)-pentazocine (WWU). The following applies: determined at WWU. The text has this: To decide which of the nine compounds would be suitable for subsequent radiofluorination, we determined the affinity towards the σ1 receptor as the most relevant off-target protein. […] To finally select the best derivative for radiofluorination, we calculated the σ2:σ1 selectivity values and identified RM273 (41) as the most suitable one with a ratio of about 400.
Sequence of guinea pig σ1 receptors (Q60492 whole entry): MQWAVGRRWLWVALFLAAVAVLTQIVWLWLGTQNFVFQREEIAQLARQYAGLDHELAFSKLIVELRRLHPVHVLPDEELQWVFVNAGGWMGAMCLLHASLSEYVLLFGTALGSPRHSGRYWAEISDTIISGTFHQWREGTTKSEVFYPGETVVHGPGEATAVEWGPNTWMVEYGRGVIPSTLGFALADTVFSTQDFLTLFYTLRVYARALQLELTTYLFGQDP

The next data set has as its target T2, rat VAChT (Rattus norvegicus, UniProt Q62666).
T2 construct: expressed in transfected cells; host or cells: PC12 cells
T2 sequence (Q62666 1-530): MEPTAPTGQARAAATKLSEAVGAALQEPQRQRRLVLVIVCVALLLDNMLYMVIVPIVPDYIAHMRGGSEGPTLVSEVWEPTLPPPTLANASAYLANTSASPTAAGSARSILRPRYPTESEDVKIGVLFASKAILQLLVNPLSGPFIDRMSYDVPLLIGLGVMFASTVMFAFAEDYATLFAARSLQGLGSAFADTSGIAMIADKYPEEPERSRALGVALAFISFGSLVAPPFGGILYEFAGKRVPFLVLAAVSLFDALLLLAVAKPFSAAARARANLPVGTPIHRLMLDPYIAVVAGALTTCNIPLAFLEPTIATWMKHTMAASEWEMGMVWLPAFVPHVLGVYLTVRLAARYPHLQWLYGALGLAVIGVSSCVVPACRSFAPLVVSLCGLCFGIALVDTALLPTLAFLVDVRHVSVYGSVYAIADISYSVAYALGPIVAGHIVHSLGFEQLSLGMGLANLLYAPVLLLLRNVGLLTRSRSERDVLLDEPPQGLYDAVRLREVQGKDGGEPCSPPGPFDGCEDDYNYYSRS
The data set can be described thus: Displacement of [3H]vesamicol in membrane homogenates of PC12 cells stably expressing rat VAChT. It counts as binding. The method, then: Because ligands targeting σ receptors may be impaired by off-target binding towards the vesicular acetylcholine transporter (VAChT), we determined in the next step the affinity of RM273 towards this protein.
as §1

The target of data set [2] is T1, σ2 receptor. In words: In vitro autoradiography on rat brain cryosections (healthy and orthotopic F98 glioblastoma). Format: binding. Also noted: from tissue; host or cells: rat brain cryosections (SPRD healthy; Fisher F344 with orthotopic F98 glioblastoma). The following applies: autoradiography, co-incubation with competitor at 10^−6 M. The text has this:
Initially, we investigated the binding of [^18F]RM273 on rat brain slices by autoradiography to compare the distribution pattern with that of established σ2 receptor ligands and to examine the target specificity. The highest binding was found in the cortical areas and hippocampal structures. […] Accordingly, we proceeded to investigate, in a rat glioblastoma model, the potential suitability of [^18F]RM273 for molecular characterization of cancer. At first, homologous competition studies using membrane homogenates of the rat glioma cell line F98 were performed to determine the σ2 receptor binding parameters of [^18F]RM273 cells (Figure 3).
We subsequently investigated the binding parameters of [^18F]RM273 by in vitro autoradiography using cryosections of rat brains obtained three weeks after stereotactic implantation of F98 rat glioblastoma cells into the left striatum. Initially, we performed a homologous displacement study to directly compare the binding sites of the new radioligand in a healthy brain and a brain tumor. The inhibition curves presented in Figure 3 indicate binding of [^18F]RM273 to single binding sites in both brain regions. […] Further supporting the assumption of a tumor-specific overexpression of σ2 receptors, a remarkably high density of binding sites of [^18F]RM273 in the F98 tumor tissue was observed (Figure 4). Compared to the healthy tissue (contralateral side), about three times more specific binding sites of [^18F]RM273 were estimated for the tumor region (32 × 10^−9 mol/L vs. 94 × 10^−9 mol/L at 1.5 nM [^18F]RM273).
In vitro autoradiography was performed using cryosections of brains of a healthy rat (SPRD, female, 250 g; Medizinisch-Experimentelles Zentrum, Universität Leipzig, Leipzig, Germany) and brains obtained from rats (Fisher F344/HanZtmRj, male, ≈260 g; Janvier Labs, Le Genest-Saint-Isle, France) 23 days after stereotactic implantation of 5 × 10^4 F98 cells in the […] striatum (n = 2).
Immediately after isolation, the brains were frozen by immersion in isopentane at −25 °C. Cryosections of 12 μm (Microm HM560 cryostat, Thermo Scientific, Schwerte, Germany) were mounted on microscopic glass slides, dried at room temperature, and stored at −25 °C. For the experiment, the slices were dried at room temperature under a stream of cold air before pre-incubation in PBS, pH 7.4, at room temperature for 15 min. […] Co-incubation with serial dilutions of RM273 (10^−10–10^−6 M) was performed to determine an inhibition curve. After 60 min, the incubation at room temperature was terminated by decanting and washing the slides by two consecutive incubations in ice-cold washing buffer (50 mM TRIS-HCl, pH 7.4 at 4 °C) for two min each, followed by dipping in ice-cold demineralized water for 5 sec and drying under a stream of cold air. In parallel, for subsequent quantification of the data obtained from the homologous competition experiment, defined volumes, and thus defined activities of the radioligand solution, were pipetted onto a microscopic glass slide (0.5–3 μL = 0.0355–0.213 kBq) and dried. Afterwards the tissue samples along with the standards were exposed to an ^18F-sensitive phosphor screen (ABC) for two hours. Image acquisition was performed using a phosphorimager (HD-CR 35; DÜRR NDT GmbH & Co. KG, Bietigheim-Bissingen, Germany). Analysis of the digitized images was performed by image analysis software (AIDA; Elysia-raytest GmbH, Straubenhardt, Germany).
Irregular regions of interest (ROI) were drawn on the standard spots and the different brain regions, which were confirmed by Nissl staining of the identical brain sections. Optical density measured in each ROI was expressed as quantum levels per unit area (QL/pixel) with a pixel size of 12.5 μm^2. From the calibration curve obtained from the standards by plotting QL vs. activity, the QL values of the ROIs were converted to activity values followed by conversion to chemical concentration of RM273 based on the molar activity of [^18F]RM273. […]

Details of data set [3]: method as in PMID 17579383. The following applies: 5 min p.i. ref 25; cited from earlier work.
Where [4] appears, read: Ki σ1 from guinea pig σ1 receptors.

Sequence of human σ1 receptors (Q99720 whole entry): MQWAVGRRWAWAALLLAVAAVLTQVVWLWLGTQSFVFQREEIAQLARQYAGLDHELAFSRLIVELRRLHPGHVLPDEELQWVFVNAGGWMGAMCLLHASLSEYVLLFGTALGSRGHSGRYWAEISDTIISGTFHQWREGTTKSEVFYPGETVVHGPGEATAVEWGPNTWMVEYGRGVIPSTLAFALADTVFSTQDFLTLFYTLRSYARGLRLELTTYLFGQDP

Turning to `COc1cc2c(cc1OC)CN(CCCCn1ccc3cccc(F)c31)CC2` [Compound 37, 2-(4-(7-Fluoro-1H-indol-1-yl)butyl)-6,7-dimethoxy-1,2,3,4-tetrahydroisoquinoline], the Ki at human σ1 receptors was 80 nM; at σ2 receptor [1], 10 nM. Further, on σ2 receptor [1] (Ki σ1 from human σ1 receptors), the “Selectivity (Ki σ1/Ki σ2)” value stood at 8.

On to `COc1cc2c(cc1OC)CN(CCCCn1ccc3ccc(F)nc31)CC2` [41 (RM273), 2-(4-(6-Fluoro-1H-pyrrolo[2,3-b]pyridin-1-yl)butyl)-6,7-dimethoxy-1,2,3,4-tetrahydroisoquinoline], for which the Ki is 691 nM at guinea pig σ1 receptors, more than 2000 nM on rat VAChT and 1.6 nM at σ2 receptor [1]. Moreover, the “Selectivity (Ki σ1/Ki σ2)” value at σ2 receptor [1] (setting [4]) is 432; on σ2 receptor [1] (Ki σ1 from guinea pig σ1 receptors, listed as RM273 (41)) it was “about 400”.

`Fc1ccc(-n2cc(CCCCN3CCC4(CC3)OCc3ccccc34)c3ccccc32)cc1` [Siramesine, siramesine, reference compound]: the “displacement of [18F]RM273 binding on rat brain slices” value on σ2 receptor [2] is “completely displaceable”.

For `COc1cc2c(cc1OC)CN(CCCCn1ccc3cc(F)ncc31)CC2` [Compound 40, 2-[4-(5-Fluor-1H-pyrrolo[2,3-c]pyridin-1-yl)butyl]-6,7-dimethoxy-1,2,3,4-tetrahydroisochinolin], the inhibition constant Ki worked out at 85 nM at guinea pig σ1 receptors and 1 nM on σ2 receptor [1]. The “Selectivity (Ki σ1/Ki σ2)” value on σ2 receptor [1] (setting [4]) was 85.

Consider `COc1cc2c(cc1OC)CN(CCCCn1ccc3c(F)nccc31)CC2` [Compound 38, 2-[4-(4-Fluor-1H-pyrrolo[3,2-c]pyridin-1-yl)butyl]-6,7-dimethoxy-1,2,3,4-tetrahydroisochinolin], for which the results for the Ki at guinea pig σ1 receptors and on σ2 receptor [1] were 80 nM and 5.5 nM, respectively. Also, on σ2 receptor [1] (setting [4]), the “Selectivity (Ki σ1/Ki σ2)” value is listed as 14.

For the compound `COc1cc2c(cc1OC)CN(CCCCn1ccc3cc(F)ccc31)CC2` [Compound 35, 2-(4-(5-Fluoro-1H-indol-1-yl)butyl)-6,7-dimethoxy-1,2,3,4-tetrahydroisoquinoline], the values for the inhibitory constant (Ki) at human σ1 receptors and on σ2 receptor [1] were 116 nM and 12 nM, respectively. Further, the “Selectivity (Ki σ1/Ki σ2)” value at σ2 receptor [1] (Ki σ1 from human σ1 receptors) stood at 9.7.

As to `COc1cccc2c1CCCC2CCCN1CCN(C2CCCCC2)CC1` (centres unmarked) [PB28, reference compound], the “displacement of [18F]RM273 binding on rat brain slices” value on σ2 receptor [2] is “completely displaceable”.

As for `COc1cc2c(cc1OC)CN(CCCCn1ccc3ccc(F)cc31)CC2` [Compound 36, 2-(4-(6-Fluoro-1H-indol-1-yl)butyl)-6,7-dimethoxy-1,2,3,4-tetrahydroisoquinoline], the Ki on human σ1 receptors stood at 46 nM; at σ2 receptor [1] it was 7.1 nM. The “Selectivity (Ki σ1/Ki σ2)” value on σ2 receptor [1] (Ki σ1 from human σ1 receptors) is recorded as 6.5.

On to `COc1cc2c(cc1OC)CN(CCCCn1ccc3nc(F)ccc31)CC2` [Compound 39, 2-[4-(5-Fluor-1H-pyrrolo[3,2-b]pyridin-1-yl)butyl]-6,7-dimethoxy-1,2,3,4-tetrahydroisochinolin], for which the inhibitory constant (Ki) at guinea pig σ1 receptors stood at 122 nM; at σ2 receptor [1], 3.8 nM. In addition, the “Selectivity (Ki σ1/Ki σ2)” value at σ2 receptor [1] (setting [4]) is 32.

`COc1cc2c(cc1OC)CN(CCCCn1ccc3c(F)cccc31)CC2` [Compound 34, 2-[4-(4-Fluoro-1H-indol-1-yl)butyl]-6,7-dimethoxy-1,2,3,4-tetrahydroisoquinoline]: the Ki on human σ1 receptors is 21 nM; on σ2 receptor [1], 14 nM. The “Selectivity (Ki σ1/Ki σ2)” value at σ2 receptor [1] (Ki σ1 from human σ1 receptors) is reported as 1.5.

Take `COc1cc2c(cc1OC)CN(CCCCn1ccc3ccnc(F)c31)CC2` [42 (RM297), 2-[4-(7-Fluor-1H-pyrrolo[2,3-c]pyridin-1-yl)butyl]-6,7-dimethoxy-1,2,3,4-tetrahydroisochinolin]: the Ki at guinea pig σ1 receptors was determined as 916 nM; on σ2 receptor [1] it was 2.7 nM. Moreover, the “Selectivity (Ki σ1/Ki σ2)” value on σ2 receptor [1] (setting [4]) came to 339.

`COc1cc2c(cc1OC)CN(CCCCNC(=O)c1cc(C)ccc1OCC[18F])CC2` [[^18F]ISO-I]: the brain uptake in data set [3] is given as 0.76 % ID/g.

(Values after PMC8196714, “Design, Radiosynthesis and Preliminary Biological Evaluation in Mice of a Brain-Penetrant ^18F-Labelled σ2 Receptor Ligand” (International Journal of Molecular Sciences, 2021).)
